According to patent US10357493B2, “Metalloenzyme inhibitor compounds” (Selenity Therapeutics (Bermuda), Ltd., priority 2017, dated 2019):
Like-named read-outs stand apart in the source and are kept apart here.

How the values were obtained:
HDAC6 = HDAC6 (Homo sapiens (Human), UniProt Q9UBN7); experiment: HDAC6 enzymatic assay; assay type: biochemical
Method in brief: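 Human HDAC6 activity was measured in duplicate 50 μl reactions holding 2 ng HDAC6, 10 uM of HDAC substrate and test compound in HDAC assay buffer (50 mM Tris-HCl, pH 7.4, 137 mM NaCl, 2.7 mM KCl, 0.05% Tween 20, 5 μg BSA) with 1% DMSO, for 17 hours at room temperature. HDAC Developer was added for 20 minutes before reading fluorescence at 360/460 nm.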

HDAC7 = HDAC7 (Homo sapiens (Human), UniProt Q8WUI4); experiment: HDAC7 enzymatic assay; assay type: biochemical; conditions: selectivity profile; read-out: HDAC Enzyme IC50, HDAC 7
Procedure: (§1) All enzymatic reactions were conducted in duplicate at room temperature for 17 hours in a 50 μl mixture containing HDAC assay buffer (50 mM Tris-HCl, pH 7.4, 137 mM NaCl, 2.7 mM KCl, 0.05% Tween 20, 5 μg BSA), an HDAC substrate, an HDAC enzyme, and a test compound. Compound dilution was prepared ten-fold higher than the final concentration of the compounds with 10% DMSO in HDAC assay buffer and 5 μl of the dilution was added to a 50 μl reaction so that the final concentration of DMSO is 1% in all of reactions. After enzymatic reactions, 50 μl of HDAC Developer was added to each well and the plate was incubated at room temperature for an additional 20 minutes. Fluorescence intensity was measured at an excitation of 360 nm and an emission of 460 nm using a Tecan Infinite M1000 or Biotek Synergy microplate reader.
(§2) The fluorescent intensity data were analyzed using the computer software, Graphpad Prism. In the absence of the compound, the fluorescent intensity (Ft) in each data set was defined as 100% activity. In the absence of HDAC, the fluorescent intensity (Fb) in each data set was defined as 0% activity. The percent activity in the presence of each compound was calculated according to the following equation: % activity=(F−Fb)/(Ft−Fb), where F=the fluorescent intensity in the presence of the compound.
(§3) The values of % activity versus a series of compound concentrations were then plotted using non-linear regression analysis of Sigmoidal dose-response curve generated with the equation Y=B+(T−B)/1+10((Log EC50−X)×Hill Slope), where Y=percent activity, B=minimum percent activity, T=maximum percent activity, X=logarithm of compound and Hill Slope=slope factor or Hill coefficient. The IC50 value was determined by the concentration causing a half-maximal percent activity.
(§4) HDAC1 enzymatic assays contained 0.5 ng HDAC1 and 10 uM of HDAC substrate. HDAC2 enzymatic assays contained 0.5 ng HDAC2 and 10 uM of HDAC substrate. HDAC3 enzymatic assays contained 0.4 ng HDAC3/NCOR2 and 10 uM of HDAC substrate. HDAC4 enzymatic assays contained 0.02 ng HDAC4 and 2 uM of HDAC substrate. HDAC5 enzymatic assays contained 0.5 ng HDAC5 and 2 uM of HDAC substrate. HDAC6 enzymatic assays contained 2 ng HDAC6 and 10 uM of HDAC substrate. HDAC7 enzymatic assays contained 0.05 ng HDAC7 and 2 uM of HDAC substrate. HDAC8 enzymatic assays contained 5 ng HDAC8 and 2 uM of HDAC substrate. HDAC9 enzymatic assays contained 1 ng HDAC9 and 2 uM of HDAC substrate. HDAC10 enzymatic assays contained 75 ng HDAC10 and 10 uM of HDAC substrate. HDAC11 enzymatic assays contained 5 ng HDAC11 and 2 uM of HDAC substrate.

HDAC2 = HDAC2 (Homo sapiens (Human), UniProt Q92769); experiment: HDAC2 enzymatic assay; assay type: biochemical; conditions: selectivity profile; read-out: HDAC Enzyme IC50, HDAC 2
Procedure: as §1, §2, §3, §4

HDAC11 = HDAC11 (Homo sapiens (Human), UniProt Q96DB2); experiment: HDAC11 enzymatic assay; assay type: biochemical; conditions: selectivity profile; read-out: HDAC Enzyme IC50, HDAC 11
Procedure: as §1, §2, §3, §4

[1] = Mouse Pharmacokinetics, oral single dose; assay type: in vivo, male Swiss Albino mice; conditions: male, Swiss Albino, plasma, 5 mg/kg, formulation by footnote: a 20% CremEL in H20, b 1% CMC in water, c 2% DMSO, 0.2% Tween80, 97.8% of 1% CMC
Procedure: Example 187: Mouse Pharmacokinetics
A dose of 5 mg/kg in an appropriate formulation was administered by oral gavage to fasted male Swiss Albino mice (n=3), and the plasma was collected at 0, 0.25, 0.5, 1, 2, 4, 8, and 24 h. Plasma levels were measured by HPLC/MS/MS methods and the pharmacokinetic parameters were determined for individual animals from plasma concentration-time data using noncompartmental model 200-202 in Phoenix WinNonlin 6.3.

HDAC4 = HDAC4 (Homo sapiens (Human), UniProt P56524); experiment: HDAC4 enzymatic assay; assay type: biochemical; conditions: selectivity profile; read-out: HDAC Enzyme IC50, HDAC 4
Procedure: as §1, §2, §3, §4

HDAC10 = HDAC10 (Homo sapiens (Human), UniProt Q969S8); experiment: HDAC10 enzymatic assay; assay type: biochemical; conditions: selectivity profile; read-out: HDAC Enzyme IC50, HDAC 10
Procedure: as §1, §2, §3, §4

HDAC1 = HDAC1 (Homo sapiens (Human), UniProt Q13547); experiment: HDAC1 enzymatic assay; assay type: biochemical
Method in brief: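 HDAC1 activity was measured in duplicate 50 μl reactions containing 0.5 ng HDAC1, 10 uM of HDAC substrate, and test compound in buffer (50 mM Tris-HCl, pH 7.4, 137 mM NaCl, 2.7 mM KCl, 0.05% Tween 20, 5 μg BSA) with 1% DMSO, incubated 17 hours at room temperature. HDAC Developer was then added for 20 minutes and fluorescence read at 360/460 nm.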

HDAC3/NCOR2 = HDAC3/NCOR2 (Homo sapiens (Human), UniProt O15379); experiment: HDAC3 enzymatic assay; assay type: biochemical; conditions: selectivity profile; read-out: HDAC Enzyme IC50, HDAC 3
Procedure: as §1, §2, §3, §4

HDAC9 = HDAC9 (Homo sapiens (Human), UniProt Q9UKV0); experiment: HDAC9 enzymatic assay; assay type: biochemical; conditions: selectivity profile; read-out: HDAC Enzyme IC50, HDAC 9
Procedure: as §1, §2, §3, §4

HDAC5 = HDAC5 (Homo sapiens (Human), UniProt Q9UQL6); experiment: HDAC5 enzymatic assay; assay type: biochemical; conditions: selectivity profile; read-out: HDAC Enzyme IC50, HDAC 5
Procedure: as §1, §2, §3, §4

HDAC8 = HDAC8 (Homo sapiens (Human), UniProt Q9BY41); experiment: HDAC8 enzymatic assay; assay type: biochemical; conditions: selectivity profile; read-out: HDAC Enzyme IC50, HDAC 8
Procedure: as §1, §2, §3, §4

[2] = selectivity profile, read-out: HDAC Enzyme IC50, HDAC 6
[3] = selectivity profile, read-out: HDAC Enzyme IC50, HDAC 1

HDAC5, sequence (Q9UQL6 whole entry, species assumed): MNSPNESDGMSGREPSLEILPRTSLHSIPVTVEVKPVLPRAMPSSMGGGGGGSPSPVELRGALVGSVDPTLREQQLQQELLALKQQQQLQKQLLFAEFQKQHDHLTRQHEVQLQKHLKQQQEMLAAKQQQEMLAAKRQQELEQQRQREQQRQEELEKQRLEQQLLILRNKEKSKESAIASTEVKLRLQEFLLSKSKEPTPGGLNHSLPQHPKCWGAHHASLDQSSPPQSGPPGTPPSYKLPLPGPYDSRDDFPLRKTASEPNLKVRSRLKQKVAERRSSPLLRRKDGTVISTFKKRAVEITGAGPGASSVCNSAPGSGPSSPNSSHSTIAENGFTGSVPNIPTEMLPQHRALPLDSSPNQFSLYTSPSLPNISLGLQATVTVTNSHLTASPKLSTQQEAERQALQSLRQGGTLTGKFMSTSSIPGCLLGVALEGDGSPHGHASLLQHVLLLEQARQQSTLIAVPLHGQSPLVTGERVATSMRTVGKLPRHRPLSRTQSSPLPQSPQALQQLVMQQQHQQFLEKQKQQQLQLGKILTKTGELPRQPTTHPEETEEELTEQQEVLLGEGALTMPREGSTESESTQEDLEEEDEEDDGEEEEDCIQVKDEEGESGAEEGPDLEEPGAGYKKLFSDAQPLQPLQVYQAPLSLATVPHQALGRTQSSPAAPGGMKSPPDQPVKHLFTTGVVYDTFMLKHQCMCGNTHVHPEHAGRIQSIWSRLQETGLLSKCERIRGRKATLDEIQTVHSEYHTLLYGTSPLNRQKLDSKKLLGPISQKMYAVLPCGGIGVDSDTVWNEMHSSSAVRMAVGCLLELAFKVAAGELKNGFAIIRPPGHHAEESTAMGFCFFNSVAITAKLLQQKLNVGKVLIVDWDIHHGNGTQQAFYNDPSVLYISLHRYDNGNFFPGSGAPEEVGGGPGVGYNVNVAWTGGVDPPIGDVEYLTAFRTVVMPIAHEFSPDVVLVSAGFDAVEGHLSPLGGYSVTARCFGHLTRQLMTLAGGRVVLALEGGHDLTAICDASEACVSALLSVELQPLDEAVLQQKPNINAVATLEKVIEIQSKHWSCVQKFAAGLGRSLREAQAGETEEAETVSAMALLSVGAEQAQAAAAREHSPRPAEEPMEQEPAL
HDAC3/NCOR2, sequence (O15379 whole entry, looked up, species assumed): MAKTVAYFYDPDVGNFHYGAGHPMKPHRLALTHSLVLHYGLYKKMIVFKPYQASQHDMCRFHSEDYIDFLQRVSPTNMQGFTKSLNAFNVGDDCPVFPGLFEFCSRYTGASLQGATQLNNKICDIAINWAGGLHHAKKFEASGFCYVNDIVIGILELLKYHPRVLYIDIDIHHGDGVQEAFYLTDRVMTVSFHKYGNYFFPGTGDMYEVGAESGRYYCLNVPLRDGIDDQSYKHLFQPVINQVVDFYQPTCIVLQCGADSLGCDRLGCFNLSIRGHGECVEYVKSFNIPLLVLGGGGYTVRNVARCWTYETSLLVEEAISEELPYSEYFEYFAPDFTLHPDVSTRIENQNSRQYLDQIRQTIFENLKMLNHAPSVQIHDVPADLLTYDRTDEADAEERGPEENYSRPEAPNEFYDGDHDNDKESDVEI
HDAC3/NCOR2, sequence (Q9Y618 whole entry partner, looked up, species assumed): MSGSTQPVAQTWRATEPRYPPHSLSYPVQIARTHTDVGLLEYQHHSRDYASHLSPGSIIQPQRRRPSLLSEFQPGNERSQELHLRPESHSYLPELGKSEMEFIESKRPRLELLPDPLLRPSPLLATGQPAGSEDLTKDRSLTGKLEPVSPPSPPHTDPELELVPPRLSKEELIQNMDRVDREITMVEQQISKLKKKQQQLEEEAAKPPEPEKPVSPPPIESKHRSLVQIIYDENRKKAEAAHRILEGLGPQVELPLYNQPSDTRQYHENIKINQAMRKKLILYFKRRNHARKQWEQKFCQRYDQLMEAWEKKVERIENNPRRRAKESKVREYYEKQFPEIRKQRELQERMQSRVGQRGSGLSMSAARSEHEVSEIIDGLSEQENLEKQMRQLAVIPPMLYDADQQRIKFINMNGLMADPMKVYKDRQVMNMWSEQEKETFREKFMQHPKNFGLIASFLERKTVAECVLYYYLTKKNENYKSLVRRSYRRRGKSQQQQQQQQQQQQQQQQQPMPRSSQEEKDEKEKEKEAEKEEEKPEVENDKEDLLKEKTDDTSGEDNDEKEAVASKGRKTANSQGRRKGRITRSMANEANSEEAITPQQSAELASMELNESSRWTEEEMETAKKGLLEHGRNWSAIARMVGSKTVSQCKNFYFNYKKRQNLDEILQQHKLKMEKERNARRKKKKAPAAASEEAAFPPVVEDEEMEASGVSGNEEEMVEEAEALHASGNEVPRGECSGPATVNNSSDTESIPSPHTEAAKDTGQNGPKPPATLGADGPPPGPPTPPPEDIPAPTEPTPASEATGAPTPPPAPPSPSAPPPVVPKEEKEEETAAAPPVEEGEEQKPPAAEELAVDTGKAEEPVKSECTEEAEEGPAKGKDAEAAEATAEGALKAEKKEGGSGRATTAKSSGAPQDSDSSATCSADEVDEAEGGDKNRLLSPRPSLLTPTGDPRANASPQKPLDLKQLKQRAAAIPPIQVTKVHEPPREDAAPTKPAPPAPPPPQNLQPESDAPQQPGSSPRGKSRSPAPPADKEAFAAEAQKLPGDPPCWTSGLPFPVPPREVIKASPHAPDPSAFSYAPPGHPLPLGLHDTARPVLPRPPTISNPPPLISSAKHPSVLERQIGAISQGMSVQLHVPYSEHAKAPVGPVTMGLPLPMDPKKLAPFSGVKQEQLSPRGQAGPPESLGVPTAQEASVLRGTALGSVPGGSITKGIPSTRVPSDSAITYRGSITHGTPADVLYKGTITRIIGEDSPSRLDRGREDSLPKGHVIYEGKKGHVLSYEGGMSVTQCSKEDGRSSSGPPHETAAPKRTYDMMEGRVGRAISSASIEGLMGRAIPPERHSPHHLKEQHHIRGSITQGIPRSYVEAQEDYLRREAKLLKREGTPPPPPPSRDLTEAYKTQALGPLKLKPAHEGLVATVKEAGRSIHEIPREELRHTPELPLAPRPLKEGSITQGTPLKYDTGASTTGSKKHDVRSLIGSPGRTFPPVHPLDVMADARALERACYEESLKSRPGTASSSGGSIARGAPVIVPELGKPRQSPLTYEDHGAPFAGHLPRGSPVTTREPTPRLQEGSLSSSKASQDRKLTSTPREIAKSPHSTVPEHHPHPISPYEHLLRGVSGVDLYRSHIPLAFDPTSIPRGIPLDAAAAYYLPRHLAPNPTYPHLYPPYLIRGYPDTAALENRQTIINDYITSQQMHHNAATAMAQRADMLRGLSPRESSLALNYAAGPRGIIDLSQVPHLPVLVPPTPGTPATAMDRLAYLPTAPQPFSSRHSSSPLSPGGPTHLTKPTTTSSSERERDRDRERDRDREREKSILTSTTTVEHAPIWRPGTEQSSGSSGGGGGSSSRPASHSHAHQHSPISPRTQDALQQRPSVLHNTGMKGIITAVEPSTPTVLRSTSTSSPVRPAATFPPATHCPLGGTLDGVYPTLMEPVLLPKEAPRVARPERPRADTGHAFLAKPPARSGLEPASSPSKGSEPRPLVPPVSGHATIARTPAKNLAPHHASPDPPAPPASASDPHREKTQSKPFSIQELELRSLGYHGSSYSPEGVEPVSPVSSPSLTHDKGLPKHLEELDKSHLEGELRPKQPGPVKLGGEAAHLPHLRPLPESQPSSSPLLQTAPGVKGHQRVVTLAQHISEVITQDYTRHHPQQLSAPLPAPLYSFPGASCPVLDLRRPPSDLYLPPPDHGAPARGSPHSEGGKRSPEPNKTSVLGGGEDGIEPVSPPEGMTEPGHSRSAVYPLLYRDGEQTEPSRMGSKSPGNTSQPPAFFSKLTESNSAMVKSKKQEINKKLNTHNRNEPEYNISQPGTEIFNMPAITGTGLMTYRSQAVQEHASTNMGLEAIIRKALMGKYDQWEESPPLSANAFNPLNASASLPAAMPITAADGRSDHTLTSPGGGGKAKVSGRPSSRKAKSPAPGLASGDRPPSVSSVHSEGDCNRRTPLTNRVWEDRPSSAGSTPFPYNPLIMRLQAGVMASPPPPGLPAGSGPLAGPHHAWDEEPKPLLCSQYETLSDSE
HDAC7, sequence (Q8WUI4 whole entry): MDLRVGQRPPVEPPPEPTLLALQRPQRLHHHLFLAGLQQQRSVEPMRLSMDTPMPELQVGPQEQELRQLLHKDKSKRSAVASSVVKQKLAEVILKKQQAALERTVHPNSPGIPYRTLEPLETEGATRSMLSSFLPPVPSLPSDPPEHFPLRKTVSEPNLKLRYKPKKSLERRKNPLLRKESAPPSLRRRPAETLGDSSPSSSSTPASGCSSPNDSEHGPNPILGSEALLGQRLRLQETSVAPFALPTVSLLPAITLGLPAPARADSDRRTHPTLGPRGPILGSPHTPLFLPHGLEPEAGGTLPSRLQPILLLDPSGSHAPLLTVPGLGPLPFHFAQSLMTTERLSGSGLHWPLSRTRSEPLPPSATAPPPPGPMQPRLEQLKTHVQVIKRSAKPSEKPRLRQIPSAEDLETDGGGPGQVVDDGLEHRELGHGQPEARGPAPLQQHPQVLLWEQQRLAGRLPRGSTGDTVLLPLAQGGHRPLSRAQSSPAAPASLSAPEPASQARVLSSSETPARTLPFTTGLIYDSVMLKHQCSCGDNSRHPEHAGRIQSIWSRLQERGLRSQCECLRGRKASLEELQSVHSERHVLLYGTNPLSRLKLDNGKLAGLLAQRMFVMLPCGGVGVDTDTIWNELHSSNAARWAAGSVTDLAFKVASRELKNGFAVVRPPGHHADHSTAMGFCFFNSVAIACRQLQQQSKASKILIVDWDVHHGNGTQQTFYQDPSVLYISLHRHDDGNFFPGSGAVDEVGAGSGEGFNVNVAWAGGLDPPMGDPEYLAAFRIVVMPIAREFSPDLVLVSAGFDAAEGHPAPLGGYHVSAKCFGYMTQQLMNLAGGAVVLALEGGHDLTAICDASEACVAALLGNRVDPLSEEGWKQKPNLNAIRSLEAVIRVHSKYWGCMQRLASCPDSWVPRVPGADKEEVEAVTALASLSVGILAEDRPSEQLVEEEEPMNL

Structure (SMILES) | IC50 (HDAC6; read-out: Human HDAC6 IC50) | IC50 (HDAC6; [2]) | IC50 (HDAC7) | IC50 (HDAC2) | IC50 (HDAC11) | Cmax [1] | half-life [1] | IC50 (HDAC4) | IC50 (HDAC10) | IC50 (HDAC1; read-out: Human HDAC1 IC50) | IC50 (HDAC1; [3]) | IC50 (HDAC3/NCOR2) | IC50 (HDAC9) | IC50 (HDAC5) | IC50 (HDAC8)
CS(=O)(=O)N(CC(Nc1ncc(-c2nnc(C(F)F)o2)cn1)c1ccc(F)cc1)CC(F)(F)F (single isomer, unassigned) [118(+), N-(2-((5-(5-(difluoromethyl)-1,3,4-oxadiazol-2-yl)pyrimidin-2-yl)amino)-2-(4-fluorophenyl)ethyl)-N-(2,2,2-trifluoroethyl)methanesulfonamide] | 0.029 µM | 0.029 µM | > 30 µM | > 30 µM | > 30 µM | 0.697 µg/mL | 23.2 h | > 30 µM | > 30 µM | > 30 µM | > 30 µM | > 30 µM | > 30 µM | > 30 µM | > 30 µM
CS(=O)(=O)NCC(Nc1ncc(-c2nnc(C(F)F)o2)cn1)c1ccc(OC(F)(F)F)cc1 (single isomer, unassigned) [122(+), N-(2-((5-(5-(difluoromethyl)-1,3,4-oxadiazol-2-yl)pyrimidin-2-yl)amino)-2-(4-(trifluoromethoxy)phenyl)ethyl)methanesulfonamide] | 0.031 µM | 0.031 µM | 26.7 µM | > 30 µM | > 30 µM | 2.93 µg/mL | 18.4 h | 8.4 µM | > 30 µM | > 30 µM | > 30 µM | > 30 µM | > 30 µM | > 30 µM | > 30 µM
CS(=O)(=O)NCC(Nc1ncc(-c2nnc(C(F)F)o2)cn1)c1ccc(F)cc1 (single isomer, unassigned) [38(+), N-(2-((5-(5-(difluoromethyl)-1,3,4-oxadiazol-2-yl)pyrimidin-2-yl)amino)-2-(4-fluorophenyl)ethyl) methanesulfonamide] | 0.015 µM | 0.015 µM | 16.7 µM | > 30 µM | > 30 µM | 1.11 µg/mL | 2.7 h | > 30 µM | > 30 µM | > 30 µM | > 30 µM | > 30 µM | > 30 µM | > 30 µM | > 30 µM
O=S(=O)(NCC(Nc1ncc(-c2nnc(C(F)F)o2)cn1)c1ccc(F)cc1)C1CC1 (stereo not drawn) [Example 110, N-(2-((5-(5-(difluoromethyl)-1,3,4-oxadiazol-2-yl)pyrimidin-2-yl)amino)-2-(4-fluorophenyl)ethyl)cyclopropanesulfonamide] | 0.028 µM | 0.028 µM | > 30 µM | > 30 µM | > 30 µM | 0.83 µg/mL | 4.3 h | > 30 µM | > 30 µM | > 30 µM | > 30 µM | > 30 µM | > 30 µM | > 30 µM | > 30 µM
CS(=O)(=O)NCC(Nc1ncc(-c2nnc(C(F)F)o2)cn1)c1ccc(OC(F)F)cc1 (single isomer, unassigned) [115(+), N-(2-(4-(difluoromethoxy)phenyl)-2-((5-(5-(difluoromethyl)-1,3,4-oxadiazol-2-yl)pyrimidin-2-yl)amino)ethyl)methanesulfonamide] | 0.018 µM | 0.018 µM | 11.9 µM | > 30 µM | > 30 µM | 0.656 µg/mL | 4.3 h | 10.7 µM | > 30 µM | > 30 µM | > 30 µM | > 30 µM | > 30 µM | > 30 µM | > 30 µM
